PubChem BioAssay AID1361 (SRMLSC, 2008)
Activity calls are given as the source filed them. The rule behind the calls is not given here.

Experiment: blockers of mitochondrial fusion, WT vs mutant – cell-based, chemical genetic, wild-type and mutant, confirmation (AID 1361)
Details: Cell-based mitochondrial fusion phenotype, imaging
[1] = mutant cells, measured here: mutant cell line IC50

Row | SMILES | IC50 (WT cells) | IC50 [1] [µM]
1 | Cc1ccccc1CN(C)CC(=O)Nc1ccccc1-c1ccccc1 | 16.3 µM | > 25
2 | O=C(O)CCc1ccc(-c2ccc(F)cc2)n1Cc1ccco1 | > 25 µM (inactive) | > 25
3 | Clc1ccc(C(c2nnnn2C2CCCCC2)N(Cc2cccnc2)Cc2ccco2)cc1 (configuration not stated) | 15.5 µM | > 25
4 | Cc1ccc(-n2cc(-c3ccccc3)c3c(N4CCOCC4)ncnc32)cc1 | 21 µM | > 25
5 | O=c1c2c3c(sc2nc2n1CCC2)CCC3 | > 25 µM (inactive) | > 25
6 | COc1ccc(Cc2nc3ccc(S(=O)(=O)N4CCOCC4)cc3[nH]2)cc1 | > 25 µM (inactive) | > 25
7 | Cn1cc(C(=O)c2ccc(Cl)cc2Cl)cc1C(=O)O | > 25 µM (inactive) | > 25
8 | COc1cccc(C2=CC(c3ccccc3)n3nnnc3N2)c1 (configuration not stated) | > 25 µM (inactive) | > 25
9 | CC12CCC(O)CC1=CCC1C2CCC2(C)C1CCC21CCC(=O)O1 (configuration not stated) | 15 µM | > 25
10 | Cc1cc(C)n(CC(O)Cn2c3ccc(Br)cc3c3cc(Br)ccc32)c(=O)n1 (configuration not stated) | 11 µM | > 25
11 | CN(C(=S)Nc1ccc(SC(F)F)cc1)c1ccc(O)cc1 | > 25 µM (inactive) | > 25
12 | CNc1oc(C)nc1S(=O)(=O)c1ccc(C)cc1 | > 25 µM (inactive) | > 25
13 | N#CCC(=O)N/N=C/c1cc(-c2ccccc2)n(-c2ccc(Cl)cc2)c1-c1ccccc1 | 4.18 µM | > 25
14 | CCOc1c(OC(C)=O)ccc(/C=C/c2ccc3cccc(OC(C)=O)c3n2)c1[N+](=O)[O-] | > 25 µM (inactive) | > 25
15 | CCCCC(=O)NC(c1ccc([N+](=O)[O-])cc1)c1c(O)ccc2ccccc12 (configuration not stated) | > 25 µM (inactive) | > 25
16 | Cc1nc(N2CCCCC2C)c2c(C)c(C(=O)Nc3cccc(C(F)(F)F)c3)sc2n1 (configuration not stated) | 10.6 µM | > 25
17 | CCOc1ccccc1NC(=O)NC(=O)N(C)S(=O)(=O)c1ccc(C)cc1 | > 25 µM (inactive) | > 25
18 | CCCN(CCC)C(=O)CC(c1ccccc1)c1cc(Br)ccc1O (configuration not stated) | 13.7 µM | > 25
19 | COC(=O)C1=C(C)N(C(C)c2ccccc2)C(=O)/C1=C\c1ccco1 (configuration not stated) | 24.2 µM | > 25
20 | COc1ccc(/C=N/N(Cc2ccccc2)c2ccccc2)cc1O | 11.6 µM | > 25
21 | O=C(Nc1ccc(C(O)(C(F)(F)F)C(F)(F)F)cc1)c1ccc(Cl)c([N+](=O)[O-])c1 | 18.8 µM | > 25

Row | SMILES | IC50 (WT cells) | IC50 [1] [µM]
22 | CC(C)CNS(=O)(=O)c1ccc(S(=O)(=O)N2CCCN(Cc3ccccc3)C2)cc1 | > 25 µM (inactive) | > 25
23 | COc1ccc(-c2cn[nH]c2-c2ccc(OCc3ccc([N+](=O)[O-])cc3)cc2O)cc1 | 10 µM | > 25
24 | O=C(C1=C[C@H](c2csc3ccccc23)C[C@H](OCc2ccc(CO)cc2)O1)N1CCN(Cc2ccccc2)CC1 | 4.03 µM | 10.5
25 | CCCOc1ccc(-c2nc(C#N)c(N3CCC(C(N)=O)CC3)o2)cc1 | > 25 µM (inactive) | > 25
26 | COc1cc(/C=N/NC(=O)CCc2ccccc2)ccc1O | > 25 µM (inactive) | > 25
27 | COc1ccc(CCN(Cc2cc3cc(C)cc(C)c3nc2Cl)C(=O)C2CC2)cc1 | 7.6 µM | > 25
28 | COc1ccc(NC(=S)N(CCc2c(C)[nH]c3ccc(C)cc23)Cc2ccco2)cc1 | 8.8 µM | > 25
29 | N#Cc1sc2nc(N3CCCCC3)c3c(c2c1N)CCCC3 | 20.2 µM | > 25
30 | COc1ccc(S(=O)(=O)N2CCC[C@H]2C(=O)NC2=NCCS2)cc1 | > 25 µM (inactive) | > 25
31 | CCCCn1c(N2CCC(Cc3ccccc3)CC2)nc2c1c(=O)[nH]c(=O)n2C | 13.7 µM | > 25
32 | Cc1cc(Nc2nc(Cl)c(Cl)cc2Cl)n(-c2ccccc2)n1 | 24.1 µM | > 25
33 | Cc1ccc(-c2nn(-c3ccccc3)cc2CSC(=N)N)cc1 | > 25 µM (inactive) | > 25
34 | Cc1cc(C)n(CCc2nc(-c3ccc(C(C)(C)C)cc3)cs2)n1 | 22.1 µM | > 25
35 | CCC(C)(C)c1ccc(Oc2ccc(N)cc2)cc1 | > 25 µM (inactive) | > 25
36 | CCOC(=O)c1c(NS(=O)(=O)c2ccc(Br)cc2)sc2c1CCC2 | 12.6 µM | > 25
37 | CCOC(=O)N1CCN(C(=O)CN(C)S(=O)(=O)c2ccc3c(c2)C(C)(C)C(=O)N3C)CC1 | > 25 µM (inactive) | > 25
38 | CCN1CCN(CCNC(=O)c2ccc(/C=C3\Sc4ccccc4N(Cc4ccccc4F)C3=O)cc2)CC1 | 18.9 µM (inactive) | > 12.5
39 | COC(=O)C1CCN(C(=O)c2cc(OC)c(OC)c(OC)c2)CC1 | > 25 µM (inactive) | > 25
40 | CCOC(=O)/C(=C\c1cccnc1)C(=O)c1cc(C(C)=O)c(Nc2ccccc2)s1 | 4.87 µM | > 25
41 | CCCCCOc1ccc2oc(=O)c3c(c2c1)CCCN3C(=O)CN1CCCC(C(=O)OCC)C1 (configuration not stated) | > 25 µM (inactive) | > 25
